PubChem BioAssay AID2060355 (Molecular Pharmacology Branch, DTP, NCI, 2025)

Tested on: 485368-065-R4-J2-PDC spheroids with HUVEC/MSC, viability
Test: Anticancer human tumor 485368-065-R4-J2-PDC patient-derived pancreatic carcinoma cell line growth inhibition [TAK]
Conditions: for IC50: curve of first compound; for viability, T/C: stronger effect = lower value
From the text: Combinatorial screen of targeted agents with TAK-243 and ipatasertib in multi-cell type tumor spheroids
A high-throughput screen of multi-cell type tumor spheroids was designed to identify active combinations of targeted small molecules and TAK-243 or ipatasertib. Complex spheroids include a stromal component modeled by human endothelial cells (HUVEC) and fibroblasts modeled by human mesenchymal stem cells (MSCs). The concentration ranges selected for each drug and investigational agent were based upon clinically achievable concentrations if the clinical Cmax of the agent was known.
Compounds. The drugs and investigational agents: TAK-243 (785004), ipatasertib (767898), everolimus (733504), selumetinib (741078), bortezomib (756655), trametinib (758246), ixazomib (758254), vemurafenib (761431), dabrafenib (764134), sapanisertib (764658), alpelisib (765974), and copanlisib (816437), were obtained from the National Cancer Institute (NCI) Developmental Therapeutics Program Chemical Repository. The FDA-approved anticancer drug set is available from the NCI Developmental Therapeutics Program. […] The stock solutions were prepared in dimethyl sulfoxide (DMSO, Sigma-Aldrich, St. Louis, MO, cat. D2650) at 800-fold the tested concentration and stored at -70 degrees C prior to their use. All drugs and investigational agents were tested over a range starting from a high concentration at or near the clinical Cmax and decreasing in half-log increments. If the clinical Cmax for an agent had not been determined, the highest concentration tested was 10 microM.
NCI60 Cell Culture. NCI60 cell lines were obtained from the NCI Developmental Therapeutics Program Tumor Repository. For each lot of cells, the Repository performed Applied Biosystems AmpFLSTR Identifiler testing with PCR amplification to confirm consistency with the published Identifier STR profile for each cell line. Cells were kept in continuous culture for no more than 20 passages. The optimal seeding densities for each of the cell lines at each time point assessed were determined prior to performing the concentration response studies. Briefly, the NCI60 human tumor lines were grown as monolayers in RPMI 1640 medium supplemented with 10% FBS and 2 mmol/L L-glutamine.
An additional 2 lines were from the NCI60 cell line panel including melanomas, MALME-3M and SK-MEL-2. Pooled donor human umbilical vein endothelial cells (HUVEC, Lonza, cat. CC-2519) and human mesenchymal stem cells (hMSC, Lonza, cat. PT-2501) were purchased from Lonza (Walkersville, MD).
PDMR cell lines were grown in complete medium (DC medium): Dulbecco's modified Eagle's medium (DMEM)/F12 supplemented with 5% fetal bovine serum (FBS), 2 mM L-glutamine, 100 U/mL penicillin and 100 µg/ml streptomycin, 0.4 µg/ml hydrocortisone, 10 ng/ml epidermal growth factor (EGF) recombinant human protein, 24 µg/mL adenine, and 0.1 mg/mL primocin. During culture from frozen stock vials, PDMR cells were cultured in the same medium containing 10 µM Y-27632 (see Table 3). The PDCs were cultured in complete DMEM/F12 media without 10 microM Y-27632 dihydrochloride for at least two passages prior to the screen. The pooled donor HUVEC and hMSC were cultured in endothelial cell growth medium 2 (PromoCell, Heidelberg, Germany, cat. C-22011) and mesenchymal stem cell growth medium 2 (PromoCell, cat. C-28009), respectively. For all experiments, HUVEC and hMSC were used at passages </=5.
For the pre-screen, cell seeding densities were determined from a titration spanning the range from 5,000 to 313 cells per well. The mct-spheroids including 60% malignant cells, 25% HUVEC and 15% MSC dispensed as a mixture into U-bottom Ultra-Low Attachment 384-well plates (Corning, NY)
High-throughput Drug Combination Screening.
Prior to their inoculation into 384-well plates, malignant cells, HUVEC, and hMSC were removed from T flasks using TrypLE express (Thermo Fisher Scientific, cat. 12605036) and harvested by centrifugation for 5 min at 233 x g. […]
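Note: spheroids exposed to compounds for seven days before readout.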
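Throughout, for viability, T/C: 100% = DMSO vehicle control wells.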

COC1CC2CCC(C)C(O)(O2)C(=O)C(=O)N2CCCCC2C(=O)OC(C(C)CC2CCC(OCCO)C(OC)C2)CC(=O)C(C)C=C(C)C(O)C(OC)C(=O)C(C)CC(C)C=CC=CC=C1C (stereo not given) + CC(C)NCC(C(=O)N1CCN(c2ncnc3c2C(C)CC3O)CC1)c1ccc(Cl)cc1
IC50 (second compound 0.3 µM): > 100 nM
IC50 (second compound 0.949 µM): > 100 nM
IC50 (second compound 3 µM): > 100 nM
IC50 (second compound 9.49 µM): > 100 nM
IC50 (second compound 30 µM): > 100 nM
viability, T/C (second compound 0.3 µM, first compound 0.000316 µM): 93.1%
viability, T/C (second compound 0.3 µM, first compound 0.001 µM): 102%
viability, T/C (second compound 0.3 µM, first compound 0.00316 µM): 104%
viability, T/C (second compound 0.3 µM, first compound 0.01 µM): 107%
viability, T/C (second compound 0.3 µM, first compound 0.0316 µM): 101%
viability, T/C (second compound 0.3 µM, first compound 0.1 µM): 102%
viability, T/C (second compound 0.949 µM, first compound 0.000316 µM): 103%
viability, T/C (second compound 0.949 µM, first compound 0.001 µM): 106%
viability, T/C (second compound 0.949 µM, first compound 0.00316 µM): 100%
viability, T/C (second compound 0.949 µM, first compound 0.01 µM): 92.1%
viability, T/C (second compound 0.949 µM, first compound 0.0316 µM): 87.3%
viability, T/C (second compound 0.949 µM, first compound 0.1 µM): 83.5%
viability, T/C (second compound 3 µM, first compound 0.000316 µM): 100%
viability, T/C (second compound 3 µM, first compound 0.001 µM): 97.1%
viability, T/C (second compound 3 µM, first compound 0.00316 µM): 82.9%
viability, T/C (second compound 3 µM, first compound 0.01 µM): 76.5%
viability, T/C (second compound 3 µM, first compound 0.0316 µM): 71.1%
viability, T/C (second compound 3 µM, first compound 0.1 µM): 74.4%
viability, T/C (second compound 9.49 µM, first compound 0.000316 µM): 83.8%
viability, T/C (second compound 9.49 µM, first compound 0.001 µM): 83.1%
viability, T/C (second compound 9.49 µM, first compound 0.00316 µM): 69%
viability, T/C (second compound 9.49 µM, first compound 0.01 µM): 71.4%
viability, T/C (second compound 9.49 µM, first compound 0.0316 µM): 64.3%
viability, T/C (second compound 9.49 µM, first compound 0.1 µM): 60.3%
viability, T/C (second compound 30 µM, first compound 0.000316 µM): 73.9%
viability, T/C (second compound 30 µM, first compound 0.001 µM): 69%
viability, T/C (second compound 30 µM, first compound 0.00316 µM): 63.9%
viability, T/C (second compound 30 µM, first compound 0.01 µM): 58.7%
viability, T/C (second compound 30 µM, first compound 0.0316 µM): 60.1%
viability, T/C (second compound 30 µM, first compound 0.1 µM): 54.5%

Cn1cnc2c(F)c(Nc3ccc(Br)cc3Cl)c(C(=O)NOCCO)cc21 + CC(C)NCC(C(=O)N1CCN(c2ncnc3c2C(C)CC3O)CC1)c1ccc(Cl)cc1
IC50 (second compound 0.3 µM): 261 nM
IC50 (second compound 0.949 µM): 51 nM
IC50 (second compound 3 µM): 32.6 nM
IC50 (second compound 9.49 µM): 17.1 nM
IC50 (second compound 30 µM): 9.58 nM
viability, T/C (second compound 0.3 µM, first compound 0.00949 µM): 76.1%
viability, T/C (second compound 0.3 µM, first compound 0.03 µM): 69.6%
viability, T/C (second compound 0.3 µM, first compound 0.0949 µM): 59%
viability, T/C (second compound 0.3 µM, first compound 0.3 µM): 48.5%
viability, T/C (second compound 0.3 µM, first compound 0.949 µM): 37%
viability, T/C (second compound 0.3 µM, first compound 3 µM): 23%
viability, T/C (second compound 0.949 µM, first compound 0.00949 µM): 70%
viability, T/C (second compound 0.949 µM, first compound 0.03 µM): 56.2%
viability, T/C (second compound 0.949 µM, first compound 0.0949 µM): 42.9%
viability, T/C (second compound 0.949 µM, first compound 0.3 µM): 30.3%
viability, T/C (second compound 0.949 µM, first compound 0.949 µM): 21.7%
viability, T/C (second compound 0.949 µM, first compound 3 µM): 13.5%
viability, T/C (second compound 3 µM, first compound 0.00949 µM): 72.5%
viability, T/C (second compound 3 µM, first compound 0.03 µM): 51.6%
viability, T/C (second compound 3 µM, first compound 0.0949 µM): 31.2%
viability, T/C (second compound 3 µM, first compound 0.3 µM): 19.4%
viability, T/C (second compound 3 µM, first compound 0.949 µM): 13.6%
viability, T/C (second compound 3 µM, first compound 3 µM): 10.7%
viability, T/C (second compound 9.49 µM, first compound 0.00949 µM): 60.4%
viability, T/C (second compound 9.49 µM, first compound 0.03 µM): 40.6%
viability, T/C (second compound 9.49 µM, first compound 0.0949 µM): 24.1%
viability, T/C (second compound 9.49 µM, first compound 0.3 µM): 17.4%
viability, T/C (second compound 9.49 µM, first compound 0.949 µM): 10.9%
viability, T/C (second compound 9.49 µM, first compound 3 µM): 8.27%
viability, T/C (second compound 30 µM, first compound 0.00949 µM): 50.1%
viability, T/C (second compound 30 µM, first compound 0.03 µM): 33.9%
viability, T/C (second compound 30 µM, first compound 0.0949 µM): 21.2%
viability, T/C (second compound 30 µM, first compound 0.3 µM): 15.5%
viability, T/C (second compound 30 µM, first compound 0.949 µM): 11.1%
viability, T/C (second compound 30 µM, first compound 3 µM): 9.61%
